Experiments:
[1] = tested on: HBV (HepG2.117 cell line, inducibly HBV producing); assay: Anti-HBV activity: intracellular HBV DNA by real-time PCR in HepG2.117 cells after 3 days of treatment; type: cell-based, hepatitis B virus; details: Hepatitis B virus, HepG2.117, 72 h, HepG2.117 cells, 3 days of treatment, intracellular HBV DNA by real-time PCR; mean value; read-out: EC50 (μM, mean value)
Outline: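 First, HBV replication is induced in HepG2.117 cells by doxycycline absence. Next, serially diluted compound is added for 3 days. Finally, intracellular HBV DNA is quantified by HBV-specific real-time PCR.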

[2] = in vitro; type: cell-based; details: human, HepG2 or HepG2.117 cells, 3-days incubation (unmarked values), ATPlite; mean value
Outline: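 Luminescent ATP quantitation served as the viability endpoint following a 3- or 4-day incubation with test compounds.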

Row | SMILES | EC50 [1] [µM] | CC50 at 3 days [2] [µM]
1 | CC(C)Nc1nc2c(c(=O)n1-c1ccc3c(c1)C(=O)NC3)C[C@@H](C)N(C(=O)c1ccc(Cl)c(Cl)c1)C2 [Compound C229, (6R)-7-(3,4-dichlorobenzoyl)-6-methyl-3-(3-oxo-2,3-dihydro-1H-isoindol-5-yl)-2-[(propan-2-yl)amino]-5,6,7,8-tetrahydropyrido[3,4-d]pyrimidin-4(3H)-one] | 0.11 | > 50
2 | CCOC(=O)c1ccc(-n2c(NC(CCO)C3CC3)nc3c(c2=O)C[C@@H](C)N(C(=O)c2ccc(Cl)c(Cl)c2)C3)cc1 (stereo partly drawn) [Compound C230, ethyl 4-[(6R)-2-[(1-cyclopropyl-3-hydroxypropyl)amino]-7-(3,4-dichlorobenzoyl)-6-methyl-4-oxo-5,6,7,8-tetrahydropyrido[3,4-d]pyrimidin-3(4H)-yl]benzoate] | 1.7 | > 50
3 | CC(C)Nc1nc2c(c(=O)n1-c1ccc3c(c1)CNC3=O)C[C@@H](C)N(C(=O)c1ccc(Cl)c(Cl)c1)C2 [Compound C231, (6R)-7-(3,4-dichlorobenzoyl)-6-methyl-3-(1-oxo-2,3-dihydro-1H-isoindol-5-yl)-2-[(propan-2-yl)amino]-5,6,7,8-tetrahydropyrido[3,4-d]pyrimidin-4(3H)-one] | 0.15 | > 50
4 | CNC(=O)c1cccc(-n2c(NC(C)C)nc3c(c2=O)C[C@@H](C)N(C(=O)c2ccc(Cl)c(Cl)c2)C3)c1 [Compound C232, 3-[(6R)-7-(3,4-dichlorobenzoyl)-6-methyl-4-oxo-2-[(propan-2-yl)amino]-5,6,7,8-tetrahydropyrido[3,4-d]pyrimidin-3(4H)-yl]-N-methylbenzamide] | 0.15 | > 50
5 | COC(=O)C12CC(n3c(NC(C)C)nc4c(c3=O)C[C@@H](C)N(C(=O)c3ccc(Cl)c(Cl)c3)C4)(C1)C2 [Compound C236] | > 50 | > 50
6 | CC(C)Nc1nc2c(c(=O)n1-c1ccc(-c3ncccn3)cc1)C[C@@H](C)N(C(=O)c1ccc(Cl)c(Cl)c1)C2 [Compound C237, (6R)-7-(3,4-dichlorobenzoyl)-6-methyl-2-[(propan-2-yl)amino]-3-[4-(pyrimidin-2-yl)phenyl]-5,6,7,8-tetrahydropyrido[3,4-d]pyrimidin-4(3H)-one] | 0.23 | > 50
7 | CC(C)Nc1nc2c(c(=O)n1-c1ccc(-c3nccs3)cc1)CCN(C(=O)c1ccc(Cl)c(Cl)c1)C2 [Compound C238, 7-(3,4-dichlorobenzoyl)-2-[(propan-2-yl)amino]-3-[4-(1,3-thiazol-2-yl)phenyl]-5,6,7,8-tetrahydropyrido[3,4-d]pyrimidin-4(3H)-one] | 0.56 | > 50
8 | CC(C)Nc1nc2c(c(=O)n1-c1ccc(-c3nccs3)cc1)C[C@@H](C)N(C(=O)c1ccc(Cl)c(Cl)c1)C2 [Compound C240, (6R)-7-(3,4-dichlorobenzoyl)-6-methyl-2-[(propan-2-yl)amino]-3-[4-(1,3-thiazol-2-yl)phenyl]-5,6,7,8-tetrahydropyrido[3,4-d]pyrimidin-4(3H)-one] | 0.13 | > 50
9 | CC(C)Nc1nc2c(c(=O)n1-c1ccc(-c3cc[nH]n3)cc1)C[C@@H](C)N(C(=O)c1ccc(Cl)c(Cl)c1)C2 [Compound C241, (6R)-7-(3,4-dichlorobenzoyl)-6-methyl-2-[(propan-2-yl)amino]-3-[4-(1H-pyrazol-3-yl)phenyl]-5,6,7,8-tetrahydropyrido[3,4-d]pyrimidin-4(3H)-one] | 0.19 | 33.1
10 | Cc1nnc(-c2ccc(-n3c(NC(C)C)nc4c(c3=O)C[C@@H](C)N(C(=O)c3ccc(Cl)c(Cl)c3)C4)cc2)o1 [Compound C242, (6R)-7-(3,4-dichlorobenzoyl)-6-methyl-3-[4-(5-methyl-1,3,4-oxadiazol-2-yl)phenyl]-2-[(propan-2-yl)amino]-5,6,7,8-tetrahydropyrido[3,4-d]pyrimidin-4(3H)-one] | 0.28 | > 50
11 | Cc1cc(-c2ccc(-n3c(NC(C)C)nc4c(c3=O)C[C@@H](C)N(C(=O)c3ccc(Cl)c(Cl)c3)C4)cc2)n[nH]1 [Compound C243, (6R)-7-(3,4-dichlorobenzoyl)-6-methyl-3-[4-(5-methyl-1H-pyrazol-3-yl)phenyl]-2-[(propan-2-yl)amino]-5,6,7,8-tetrahydropyrido[3,4-d]pyrimidin-4(3H)-one] | 0.23 | 28.7
12 | Cc1nc(-c2ccc(-n3c(NC(C)C)nc4c(c3=O)C[C@@H](C)N(C(=O)c3ccc(Cl)c(Cl)c3)C4)cc2)c[nH]1 [Compound C244, (6R)-7-(3,4-dichlorobenzoyl)-6-methyl-3-[4-(2-methyl-1H-imidazol-4-yl)phenyl]-2-[(propan-2-yl)amino]-5,6,7,8-tetrahydropyrido[3,4-d]pyrimidin-4(3H)-one] | 0.12 | 22.9
13 | Cc1nnc(-c2ccc(-n3c(NC(C)C)nc4c(c3=O)C[C@@H](C)N(C(=O)c3ccc(Cl)c(Cl)c3)C4)cc2)s1 [Compound C245, (6R)-7-(3,4-dichlorobenzoyl)-6-methyl-3-[4-(5-methyl-1,3,4-thiadiazol-2-yl)phenyl]-2-[(propan-2-yl)amino]-5,6,7,8-tetrahydropyrido[3,4-d]pyrimidin-4(3H)-one] | 0.17 | > 50
14 | Cc1cc(-c2ccc(-n3c(NC(C)C)nc4c(c3=O)C[C@@H](C)N(C(=O)c3ccc(Cl)c(Cl)c3)C4)cc2)on1 [Compound C246, (6R)-7-(3,4-dichlorobenzoyl)-6-methyl-3-[4-(3-methyl-1,2-oxazol-5-yl)phenyl]-2-[(propan-2-yl)amino]-5,6,7,8-tetrahydropyrido[3,4-d]pyrimidin-4(3H)-one] | 0.19 | > 50
15 | Cc1csc(-c2ccc(-n3c(NC(C)C)nc4c(c3=O)C[C@@H](C)N(C(=O)c3ccc(Cl)c(Cl)c3)C4)cc2)n1 [Compound C247, (6R)-7-(3,4-dichlorobenzoyl)-6-methyl-3-[4-(4-methyl-1,3-thiazol-2-yl)phenyl]-2-[(propan-2-yl)amino]-5,6,7,8-tetrahydropyrido[3,4-d]pyrimidin-4(3H)-one] | 0.12 | > 50
16 | Cc1[nH]cnc1-c1ccc(-n2c(NC(C)C)nc3c(c2=O)C[C@@H](C)N(C(=O)c2ccc(Cl)c(Cl)c2)C3)cc1 [Compound C248, (6R)-7-(3,4-dichlorobenzoyl)-6-methyl-3-[4-(5-methyl-1H-imidazol-4-yl)phenyl]-2-[(propan-2-yl)amino]-5,6,7,8-tetrahydropyrido[3,4-d]pyrimidin-4(3H)-one] | 0.13 | 31.1
17 | CC(C)Nc1nc2c(c(=O)n1-c1ccc(-c3n[nH]c(Br)n3)cc1)C[C@@H](C)N(C(=O)c1ccc(Cl)c(Cl)c1)C2 [Compound C249, (6R)-3-[4-(5-bromo-1H-1,2,4-triazol-3-yl)phenyl]-7-(3,4-dichlorobenzoyl)-6-methyl-2-[(propan-2-yl)amino]-5,6,7,8-tetrahydropyrido[3,4-d]pyrimidin-4(3H)-one] | 0.49 | > 50
18 | Cc1c[nH]c(-c2ccc(-n3c(NC(C)C)nc4c(c3=O)C[C@@H](C)N(C(=O)c3ccc(Cl)c(Cl)c3)C4)cc2)n1 [Compound C250, (6R)-7-(3,4-dichlorobenzoyl)-6-methyl-3-[4-(4-methyl-1H-imidazol-2-yl)phenyl]-2-[(propan-2-yl)amino]-5,6,7,8-tetrahydropyrido[3,4-d]pyrimidin-4(3H)-one] | 0.07 | 8.9
19 | CNC(=O)c1ccc(-n2c(NC34CC(C3)C4)nc3c(c2=O)C[C@@H](C)N(C(=O)c2ccc(Cl)c(Cl)c2)C3)cc1 [Compound C251, 4-[(6R)-2-[(bicyclo[1.1.1]pentan-1-yl)amino]-7-(3,4-dichlorobenzoyl)-6-methyl-4-oxo-5,6,7,8-tetrahydropyrido[3,4-d]pyrimidin-3(4H)-yl]-N-methylbenzamide] | 0.25 | > 50
20 | CNC(=O)c1ccc(-n2c(N3CCC[C@H]3C)nc3c(c2=O)C[C@@H](C)N(C(=O)c2ccc(Cl)c(Cl)c2)C3)cc1 [Compound C252, 4-[(6R)-7-(3,4-dichlorobenzoyl)-6-methyl-2-[(2R)-2-methylpyrrolidin-1-yl]-4-oxo-5,6,7,8-tetrahydropyrido[3,4-d]pyrimidin-3(4H)-yl]-N-methylbenzamide] | 0.04 | 25.9
21 | CNC(=O)c1ccc(-n2c(N[C@@H](C)c3ccccc3)nc3c(c2=O)C[C@@H](C)N(C(=O)c2ccc(Cl)c(Cl)c2)C3)cc1 [Compound C253, 4-[(6R)-7-(3,4-dichlorobenzoyl)-6-methyl-4-oxo-2-{[(1S)-1-phenylethyl]amino}-5,6,7,8-tetrahydropyrido[3,4-d]pyrimidin-3(4H)-yl]-N-methylbenzamide] | 0.1 | 22.9
22 | CC(C)Nc1nc2c(c(=O)n1[C@H]1CC[C@H](C(=O)O)CC1)C[C@@H](C)N(C(=O)c1ccc(Cl)c(Cl)c1)C2 [Compound C254, trans-4-[(6R)-7-(3,4-dichlorobenzoyl)-6-methyl-4-oxo-2-[(propan-2-yl)amino]-5,6,7,8-tetrahydropyrido[3,4-d]pyrimidin-3(4H)-yl]cyclohexane-1-carboxylic acid] | 1.99 | > 50
23 | CNC(=O)[C@H]1CC[C@H](n2c(NC(C)C)nc3c(c2=O)C[C@@H](C)N(C(=O)c2ccc(Cl)c(Cl)c2)C3)CC1 [Compound C255, trans-4-[(6R)-7-(3,4-dichlorobenzoyl)-6-methyl-4-oxo-2-[(propan-2-yl)amino]-5,6,7,8-tetrahydropyrido[3,4-d]pyrimidin-3(4H)-yl]-N-methylcyclohexane-1-carboxamide] | 0.09 | > 50

From US20230091047A1 (priority 2019, published 2023)
